This note sets out measurements from US11186572B2, “Bacterial glutaminyl cyclases and inhibitors thereof for use in the treatment of periodontitis” (Fraunhofer-Gesellschaft zur Forderung der Angewandten …, priority 2016, dated 2021).

In brackets after ≈: the same amount, converted by molar mass. Entries after “also recorded” stand apart in the source; their conditions may differ. Where two headings read alike, the source gives them in different places.

The test system of experiment [1] is P. gingivalis ATCC 33277. The experiment in a line: MIC/MBC, cultivation in 2-fold dilution series. Format: cell-based. As to conditions: Porphyromonas gingivalis, ATCC33277, P.g. ATCC 33277; for MIC: lowest concentration without visible growth (turbidity); for MBC: no growth of subcultivation or reduction by 99.9%. An excerpt: (§1) Bacteria expressing PgQC, TfQC and PiQC, namely P. gingivalis ATCC 33277, P. gingivalis M5-1-2, T. forsythia ATCC 42077, and P. intermedia ATCC 25611 were cultivated in the presence of compounds MWT-S-00275, MWT-S-00431, MWT-S-00441 and doxycycline in 2-fold dilution series. […]

Experiment [2] has as its system P. intermedia ATCC 25611. The experiment in a line: MIC/MBC, cultivation in 2-fold dilution series. To be noted: Prevotella intermedia, ATCC25611, P.i. ATCC 25611; for MIC: lowest concentration without visible growth (turbidity); for MBC: no growth of subcultivation or reduction by 99.9%. It is filed as cell-based.
Description: as §1

Experiment [3] concerns P. gingivalis M5-1-2. In words: MIC/MBC, cultivation in 2-fold dilution series. To be noted: Porphyromonas gingivalis, M512, P.g. M5-1-2; for MIC: lowest concentration without visible growth (turbidity); for MBC: no growth of subcultivation or reduction by 99.9%. It is filed as cell-based.
Description: as §1

For experiment [4], the system named is T. forsythia ATCC 42077. In words: MIC/MBC, cultivation in 2-fold dilution series. It is filed as cell-based. As to conditions: Tannerella forsythia, ATCC42077, T.f. ATCC 42077; for MIC: lowest concentration without visible growth (turbidity); for MBC: no growth of subcultivation or reduction by 99.9%.
Description: as §1

In experiment [5] the test system is bacterial QC (PgQC, PiQC, TfQC). The experiment in a line: Inhibition of bacterial QC by metal chelators (fluorometric activity assay). It is filed as biochemical, P. gingivalis, P. intermedia, T. forsythia. To be noted: 250 μM H-Gln-AMC, increasing chelator concentrations, approx. 5 nM bacQC, 30° C.; all three bacterial QC (FIG. 7). As to the method: The fluorometrically activity assay was carried out as described above, except the presence of 1% (v/v) DMSO in the case of 1,10-phenanthroline or dipicolinic acid. Finally the residual bacQC activity was determined at steady state whereas bacQC without Chelators and +/−1% DMSO served as positive control.
The reaction was initiated by adding approximately 5 nM bacQC. Black bars indicate residual PgQC activity, striped bars represent residual PiQC activity, and white bars display residual TfQC activity. All determinations were carried out at 30° C. as described above.

Experiment [6] has as its target T1, PgQC (Porphyromonas gingivalis, UniProt Q7MT37).
T1 construct: Ki; RA (average residual QC activity of PgQC); other: c = 1 μM; other: c = 1.5 μM; other: c = 10 μM; other: c = 100 μM; other: c = 12 μM; RA; fused on or other part: N-terminal His tag from pET28a(+), cleaved off by thrombin before the enzymatic characterisation
The experiment in a line: biochemical. More on the design: species or system P. gingivalis. As to conditions: for remaining activity at 1 µM / remaining activity at 10 µM / remaining activity at 100 µM: read-out: RA (average residual QC activity of PgQC). As to the method: The assay consists of varying concentration of the fluorogenic substrate and 0.5 U pyroglutaminyl aminopeptidase in 50 mM Tris-HCl, 50 mM NaCl at pH 8.0. After 10 minute incubation time at 30° C. reaction was initiated by addition of bacQC to a final volume of 125 μl reaction mixture. […] All determinations were carried out in 96 well microtiter plates (Fisher Scientific) at 30° C. using the FluoStar Optima (BMG Labtech).
For inhibitor testing, the sample composition was the same as described above, except for the addition of the putative inhibitory compound. […] (∘) represents reaction without inhibitor. Determinations were carried out in 50 mM Tris-HCl, 50 mM NaCl pH 8.0 and 1% (v/v) DMSO at 30° C.
RA refers to the average residual QC activity of PgQC measured in the presence of a concentration c of the respective compound. Ki refers to the average Ki values measured as described above, and Std(Ki) refers to the standard deviation of Ki.

Where [7] appears, read: Ki (average), inhibition of PgQC, H-Gln-AMC, 50 mM Tris-HCl, 50 mM NaCl pH 8.0, 30° C.
Where [8] appears, read: inhibition of PgQC, H-Gln-AMC, 50 mM Tris-HCl, 50 mM NaCl pH 8.0, 30° C., read-out: Ki (average).

Take `C[C@H]1c2cccc(O)c2C(=O)C2=C(O)[C@]3(O)C(=O)C(C(N)=O)=C(O)[C@@H](N(C)C)[C@@H]3[C@@H](O)[C@@H]21` [Doxy, Doxycycline, reference compound]: the MIC in experiment [1], in experiment [2], in experiment [3] and in experiment [4] was not above 3130 µg/mL in each case. In addition, the minimum bactericidal concentration (MBC) in experiment [1] turned out to be 50000 µg/mL (≈ 113 mM); in experiment [2], 12500 µg/mL (≈ 28.1 mM); in experiment [4], 6250 µg/mL (≈ 14.1 mM).
As to `O=C(O)CN(CCN(CC(=O)O)CC(=O)O)CC(=O)O` [EDTA], in experiment [5], the “inhibitory effect on bacQC activity (residual activity)” value is “does not influence bacQC activity”.
For the compound `CC1(C)c2nc[nH]c2CCN1Cc1cc(F)c(F)c(F)c1` [MWT-S-00275, 4,4-Dimethyl-5-[(3,4,5-trifluorophenyl)methyl]-6,7-dihydro-3H-imidazo[4,5-c]pyridine], in experiment [6] (setting [7]), affinity was put at a Ki of 143 nM. Also, in experiment [6], the remaining activity at 1 µM was 22%. Further, the minimal inhibitory concentration (MIC) in experiment [1] is 500 µg/mL (≈ 1.69 mM); in experiment [2] it was 500 µg/mL (≈ 1.69 mM); in experiment [3], 500 µg/mL (≈ 1.69 mM); in experiment [4], 250 µg/mL (≈ 0.847 mM). The minimum bactericidal concentration (MBC) in experiment [1] was 1000 µg/mL (≈ 3.39 mM); in experiment [2], 500 µg/mL (≈ 1.69 mM); in experiment [3], 1000 µg/mL (≈ 3.39 mM); in experiment [4] it was 250 µg/mL (≈ 0.847 mM).
With `Clc1ccc(CN2CCc3[nH]cnc3C2)cc1Cl` [MWT-S-00423, 5-[(3,4-Dichlorophenyl)methyl]-1,4,6,7-tetrahydroimidazo[4,5-c]pyridine], in experiment [6] (setting [7]), the Ki was 367 nM. In experiment [6], the remaining activity at 10 µM was determined as 8%.
`O=C(c1cccc(Cl)c1)N1CCc2[nH]cnc2C1` [MWT-S-00425, (3-Chlorophenyl)(1,4,6,7-tetrahydro-5H-imidazo[4,5-c]pyridin-5-yl)methanone]: in experiment [6] (setting [8]), the inhibition constant (Ki) stood at 174 nM. Further, the remaining activity at 10 µM in experiment [6] was 5%.
For `COc1ccc(C(=O)N2CCc3[nH]cnc3C2)cc1OC` [MWT-S-00426, (3,4-Dimethoxyphenyl)(1,4,6,7-tetrahydro-5H-imidazo[4,5-c]pyridin-5-yl)methanone] the same measures were 1460 nM and 26%.
In the case of `O=C(c1ccc2c(c1)OCO2)N1CCc2[nH]cnc2C1` [MWT-S-00427, Benzo[d][1,3]dioxol-5-yl(1,4,6,7-tetrahydro-5H-imidazo[4,5-c]pyridin-5-yl)methanone], in experiment [6] (setting [8]), the Ki turned out to be 560 nM. The remaining activity at 10 µM in experiment [6] stood at 13%.
For the compound `O=C(c1ccc(-c2ccccc2)cc1)N1CCc2[nH]cnc2C1` [MWT-S-00428, [1,1′-Biphenyl]-4-yl(1,4,6,7-tetrahydro-5H-imidazo[4,5-c]pyridin-5-yl)methanone], the inhibitory constant (Ki) in experiment [6] (setting [8]) stood at 1900 nM. In experiment [6], the remaining activity at 1 µM was 83%.
As for `COc1cc(OC)cc(C(=O)N2CCc3[nH]cnc3C2)c1` [MWT-S-00429, (3,5-Dimethoxyphenyl)(1,4,6,7-tetrahydro-5H-imidazo[4,5-c]pyridin-5-yl)methanone], the Ki in experiment [6] (setting [8]) came to 928 nM. In addition, the remaining activity at 10 µM in experiment [6] is 16%.
For the compound `O=C(c1cccc(F)c1)N1CCc2[nH]cnc2C1` [MWT-S-00430, (3-Fluorophenyl)(1,4,6,7-tetrahydro-5H-imidazo[4,5-c]pyridin-5-yl)methanone], in experiment [6], the remaining activity at 1 µM was 40%.
In the case of `O=C(c1cc(Cl)cc(Cl)c1)N1CCc2[nH]cnc2C1` [MWT-S-00431, (3,5-Dichlorophenyl)(1,4,6,7-tetrahydro-5H-imidazo[4,5-c]pyridin-5-yl)methanone], the Ki in experiment [6] (Ki, Table 3 fit, competitive inhibition, 1% (v/v) DMSO, pH 8.0, 30° C.) was found to be 104 nM; in experiment [6] (Ki, exemplary determination (FIG. 4), 1% (v/v) DMSO, pH 8.0, 30° C.), 104 ± 3.31 nM; in experiment [6] (setting [8]) it was 100 nM. Moreover, the remaining activity at 10 µM in experiment [6] was found to be 3%. Besides, the MIC in experiment [1] turned out to be 1000 µg/mL (≈ 3.38 mM); in experiment [2] it was 125 µg/mL (≈ 0.422 mM); in experiment [3], 1000 µg/mL (≈ 3.38 mM); in experiment [4] it was 1000 µg/mL (≈ 3.38 mM). Also, the minimum bactericidal concentration (MBC) in experiment [1] was found to be 2000 µg/mL (≈ 6.75 mM); in experiment [2], 500 µg/mL (≈ 1.69 mM); in experiment [3], 2000 µg/mL (≈ 6.75 mM); in experiment [4], 2000 µg/mL (≈ 6.75 mM).
For the compound `CCCOc1cccc(C(=O)N2CCc3[nH]cnc3C2)c1` [MWT-S-00432, (3-Propoxyphenyl)(1,4,6,7-tetrahydro-5H-imidazo[4,5-c]pyridin-5-yl)methanone], the Ki in experiment [6] (setting [8]) came to 780 nM. In experiment [6], the remaining activity at 100 µM worked out at 2%.
Turning to `O=C(c1cccc(-c2ccccc2)c1)N1CCc2[nH]cnc2C1` [MWT-S-00433, [1,1′-Biphenyl]-3-yl(1,4,6,7-tetrahydro-5H-imidazo[4,5-c]pyridin-5-yl)methanone], in experiment [6] (setting [8]), the Ki came out at 547 nM. The remaining activity at 1 µM in experiment [6] stood at 47%.
In the case of `O=C(c1ccc2c(c1)OCCO2)N1CCc2[nH]cnc2C1` [MWT-S-00434, (2,3-Dihydrobenzo[b][1,4]dioxin-6-yl)(1,4,6,7-tetrahydro-5H-imidazo-[4,5-c]pyridin-5-yl)methanone], the inhibition constant (Ki) in experiment [6] (setting [8]) was 1340 nM. In experiment [6], the remaining activity at 100 µM was found to be 3%.
Regarding `O=C(c1cc(F)c(F)c(F)c1)N1CCc2[nH]cnc2C1` [MWT-S-00435, (1,4,6,7-Tetrahydro-5H-imidazo[4,5-c]pyridin-5-yl)(3,4,5-trifluoro-phenyl)methanone], the Ki in experiment [6] (setting [8]) turned out to be 904 nM. In addition, in experiment [6], the remaining activity at 10 µM worked out at 16%.
Regarding `COc1cc(C(=O)N2CCc3[nH]cnc3C2)ccc1F` [MWT-S-00436, (4-Fluoro-3-methoxyphenyl)(1,4,6,7-tetrahydro-5H-imidazo[4,5-c]pyridin-5-yl)methanone], the Ki in experiment [6] (setting [8]) was determined as 1240 nM. Also, in experiment [6], the remaining activity at 100 µM was determined as 3%.
As for `O=C(c1ccc2ccccc2c1)N1CCc2[nH]cnc2C1` [MWT-S-00440, Naphthalen-2-yl(1,4,6,7-tetrahydro-5H-imidazo[4,5-c]pyridin-5-yl)methanone], in experiment [6] (setting [8]), the Ki turned out to be 126 nM. Also, the remaining activity at 10 µM in experiment [6] was determined as 4%.
As to `COc1cc(Cl)cc(C(=O)N2CCc3[nH]cnc3C2)c1` [MWT-S-00441, (3-Chloro-5-methoxyphenyl)(1,4,6,7-tetrahydro-5H-imidazo[4,5-c]pyridin-5-yl)methanone], the Ki in experiment [6] (setting [8]) stood at 87 nM. The remaining activity at 1 µM in experiment [6] was 17%. Besides, the MIC in experiment [1] came out at 1000 µg/mL (≈ 3.43 mM); in experiment [2], 63 µg/mL (≈ 0.216 mM); in experiment [3], 1000 µg/mL (≈ 3.43 mM); in experiment [4] it was 2000 µg/mL (≈ 6.86 mM). Moreover, the MBC in experiment [1] is 2000 µg/mL (≈ 6.86 mM); in experiment [2] it was 63 µg/mL (≈ 0.216 mM); in experiment [3] it was more than 2000 µg/mL; in experiment [4], 2000 µg/mL (≈ 6.86 mM).
Regarding `O=C(O)c1cccc(C(=O)O)n1` [dipicolinic acid], the “inhibitory effect on bacQC activity (residual activity)” value in experiment [5] was “strong inhibitory activity”.
On to `c1cnc2c(c1)ccc1cccnc12` [phenanthroline, 1,10-phenanthroline], for which the “inhibitory effect on bacQC activity (residual activity)” value in experiment [5] is given as “strong inhibitory activity; also recorded: inhibited QC activity already at low mM range”.
